Marks after values point to notes of the source that are not given here.
Legend:
[1] = tested on: irritable bowel syndrome rats; experiment: Irritable bowel syndrome rats induced by early maternal separation; assay type: in vivo, SD rats; set-up: AWR scoring: scale not given here; details: for Colon 5-HT / Serum 5-HT / AWR scoring: IBS rats; for 5-HT level in colon and serum, in words / AWR scoring, in words: compared with the model group
Experimental: The newborn SD male rats were separated from the mother rat in lactation period for 3 h every day on the 2nd to the 21st day after the birth of the newborn SD rats, namely, the mother rat in lactation period was taken out of the cage at 8:30 a.m., and then the newborn rats were removed from the initial cage and put to another separate cage, then the cage was transferred to an adjacent room, then the newborn rats were returned to the initial cage 3 h later, namely, at 11:30 such that the newborn rats and the mother rat got together; the newborn rats were weaned on the 22nd day after birth and separated from the initial cage on the 30th day, grouped on the 60th day, and administered, 20 d in total.
Intragastric administration was performed within the administration period once a day with continuous administration for 20 d.
Test indicators: abdominal withdrawal reflex (AWR); test method: rats were fasted 18 h before the experiment and drank water freely, and narcotized with diethyl ether; then an air sac coated with paraffin oil was inserted into the rats’ colorectum for 4.0 cm, and a catheter outside the anus was fixed at the root of the rat tail with an adhesive tape, and connected with an injection syringe and a sphygmomanometer via three links. The rats were put to an organic glass inspection box (20 cmx12 cm×9 cm), after the rats were awake and fully adapted to the environment for 30 min, the experiment was started. 20, 40 and 60 mm Hg of pressure were respectively applied on the rats, and continuous expansion was performed for 20 s each time with a stimulus interval of 4 min; each pressure was performed for 3 times repeatedly for AWR scoring.
At the end of the experiment, the animals were dissected and weighed, and narcotized to take blood, then the content of 5-HT in serum was determined by high performance liquid chromatography. […] slightly with 0.5% sodium carboxymethylcellulose, and then sucked dry with a filter paper, and placed into a cryogenic tube, and preserved at -20° C. for further use, […] chromatography.

[2] = biological target: T1, recombinant human protein MAGL (Homo sapiens, UniProt Q99685); experiment: MAGL enzyme analysis (Cayman MAGL inhibitor screening kit); assay type: biochemical; details: 4-nitrophenylacetic acid substrate, absorbance 410 nm, read-out: MAGLXIC50
T1 construct: purchased Cayman
T1 sequence (Q99685 1-303): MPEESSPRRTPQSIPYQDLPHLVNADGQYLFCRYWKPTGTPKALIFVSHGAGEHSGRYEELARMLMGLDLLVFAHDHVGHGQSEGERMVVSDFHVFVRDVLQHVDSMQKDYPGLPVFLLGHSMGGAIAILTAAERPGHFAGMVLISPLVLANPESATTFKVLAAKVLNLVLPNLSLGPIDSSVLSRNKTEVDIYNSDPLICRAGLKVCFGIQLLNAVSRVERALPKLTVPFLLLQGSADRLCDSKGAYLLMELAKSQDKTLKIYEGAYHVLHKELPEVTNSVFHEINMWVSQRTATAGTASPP
Experimental: 150 µL 1Xassay buffer, 10 µL recombinant human protein MAGL and 10 µL different concentrations of MAGL inhibitors (six points within 1 nM to 1000 nM) were added to per well of a 96-well plate. JZL195 (a positive control inhibitor) served as a positive control well, after incubation for 5 min at room temperature, per well was added with 10 µL MAGL substrate, and […] were vibrated for 10 s and placed for 10 min at room temperature, then an absorbance was detected at 410 nm. […] Graphad Prism 5.0 was taken to calculate IC50 curves fitting each inhibitor.

[3] = tested on: mice forced swimming test; experiment: Mice forced swimming test; assay type: in vivo, ICR mice; details: forced swimming, 6 min; 5 mg/kg intragastric once per day 10 d, 1 h after final administration
Experimental: (§1) Male ICR mice having a body weight of 18-22 g. The animals were active on a schedule of normal illumination for 12 h and in the dark for 12 h. Environmental temperature and relative humidity were relatively kept for 22±1° C. and 55±5%.
(§2) There were 7 groups of laboratory mice, 10 pieces each group, set as a control group (normal saline), a positive control group (fluoxetine hydrochloride capsule, 5 mg/kg), 5 MAGLZ-II series of administration treatment groups: MAGLZ-II-06, MAGLZ-II-07, MAGLZ-II-11, MAGLZ-II-17 and MAGLZ-II-18, respectively, with an administration concentration of 5 mg/kg.
(§3) All medicaments were used once per day via intragastric administration with a dose of 20 mL/kg (body weight), lasting for 10 d. 1 h later after the final administration, the detection of animal behaviors was started.
Mice forced swimming test was performed according to the method established by Porsolt (Porsolt R D. Behavioural despair in mice: A primary screening test for antidepressants[J]. Arch. Int. Pharmacolodyn. 1977, 229). […] Each mouse was judged as still when stopped struggling, kept suspension in water and only made necessary movement to keep the head above the water.
(§4) All data are shown by x̅±SD, and the comparison among groups is analyzed by one-way variance.

[4] = Tissue distribution test in mice; assay type: in vivo; set-up: content in the brain (tissue distribution): unit not given here; details: 16 mg/kg subcutaneous injection
[5] = tested on: mice tail suspension test; experiment: Mice tail suspension test; assay type: in vivo, ICR mice; details: final 4 min of 6 min, 5 mg/kg intragastric once per day 10 d
Experimental: as §1, §2, §3
The tail suspension test (TST) was performed by the method established by Porsolt, et al. (Porsolt R D, Le Pichon M, Jalfre M. Depression: a new animal model sensitive to antidepressant treatments[J]. Nature, 1977, 266(5604):730-732). Mice were respectively suspended on the tail portions with tail suspension clamps at a distance of 10 mm away from the tail portion of the box (250 mm×250 mm×300 mm) and a distance of 5 cm where the head of each mouse was away from the bottom portion. Noise was tested in a dark room having minimum background, and each mouse was suspended for 6 min, and an immobility time was recorded at intervals in the final 4 min. Judgment standard: the mice stopped struggling and kept still completely.
as §4

[6] = high dose 30 mg/kg ig 20 d, 20 mm Hg
[7] = high dose 30 mg/kg ig 20 d, 40 mm Hg
[8] = high dose 30 mg/kg ig 20 d, 60 mm Hg
[9] = low dose 7.5 mg/kg ig 20 d, 20 mm Hg
[10] = low dose 7.5 mg/kg ig 20 d, 40 mm Hg
[11] = low dose 7.5 mg/kg ig 20 d, 60 mm Hg
[12] = middle dose 15 mg/kg ig 20 d, 20 mm Hg
[13] = middle dose 15 mg/kg ig 20 d, 40 mm Hg
[14] = middle dose 15 mg/kg ig 20 d, 60 mm Hg

Row | SMILES | Colon 5-HT ([1]; high dose 30 mg/kg ig 20 d) | Serum 5-HT ([1]; high dose 30 mg/kg ig 20 d) | AWR scoring [1, 6] | AWR scoring [1, 7] | AWR scoring [1, 8] | Colon 5-HT ([1]; low dose 7.5 mg/kg ig 20 d) | Serum 5-HT ([1]; low dose 7.5 mg/kg ig 20 d) | AWR scoring [1, 9] | AWR scoring [1, 10] | AWR scoring [1, 11] | Colon 5-HT ([1]; middle dose 15 mg/kg ig 20 d) | Serum 5-HT ([1]; middle dose 15 mg/kg ig 20 d) | AWR scoring [1, 12] | AWR scoring [1, 13] | AWR scoring [1, 14] | 5-HT level in colon and serum, in words [1] | AWR scoring, in words [1] | IC50 [2] [nM] | Accumulated immobility time [3] [S] | Accumulated immobility time [5] [S] | further results
1 | Cn1c(C(=O)N2CCC(C(=O)Nc3cccc(Cl)c3)CC2)cc2ccccc21 [MAGLZ-II-18 (c)] | 14.34±2.40^∗∗∗ µg/mg | 29.03±5.29^∗∗∗ µg/ml | 1.38±0.51^∗∗ ∗ | 2.20±0.57^∗∗∗ | 2.96±0.70^∗∗∗ | 16.84 ± 2.87 µg/mg | 34.2 ± 5.37 µg/mL | 2.28±0.58 | 3.20±0.43 | 3.61±0.24 | 14.99±2.90^∗∗ µg/mg | 31.88±4.40^∗∗ µg/ml | 1.79±0.23^∗∗ ∗ | 2.87±0.65^∗∗ | 3.27±0.51^∗∗ | significantly decrease | significantly decrease | 2.6 | – | – | –
2 | O=C(Nc1cccc(Cl)c1)C1CCN(C(=O)c2cc3cc(F)ccc3[nH]2)CC1 [MAGLZ-II-18 (a)] | 13.90 ± 1.13 µg/mg | 29.44 ± 4.37 µg/mL | 1.96±0.46** * | 2.60±0.58 | 3.00±0.54 | 16.43 ± 2.15 µg/mg | 32.51 ± 5.01 µg/mL | 2.58±0.26 | 3.06±0.38 | 3.50±0.29 | 14.64 ± 2.17 µg/mg | 30.20 ± 5.59 µg/mL | 2.35±0.40 | 3.02±0.51 | 3.39±0.34 | significantly decrease | significantly decrease | 2150 | – | – | –
3 | O=C(Nc1ccc(Cl)cc1)C1CCN(C(=O)c2ccc(O)cc2)CC1 [MAGLZ-II-10] | 18.66±2.38^∗ µg/mg | 33.09±2.31^∗ µg/ml | 2.89±0.46 | 3.21±0.35^∗ | 3.65±0.17^∗ | 21.44 ± 2.72 µg/mg | 36.32 ± 3.14 µg/mL | 2.87±0.39 | 3.43±0.30 | 3.79±0.20 | 20.97 ± 2.24 µg/mg | 38.65 ± 2.68 µg/mL | 2.83±0.47 | 3.56±0.22 | 3.80±0.17 | – | – | – | – | – | –
4 | O=C(Nc1cccc(Cl)c1)C1CCN(C(=O)c2cccc(O)c2)CC1 [MAGLZ-II-11] | 12.00±2.93^∗∗∗ µg/mg | 23.82±6.34^∗∗∗ µg/ml | 1.39±0.30^∗∗ ∗ | 1.92±0.33^∗∗∗ | 2.86±0.26^∗∗∗ | 16.24±2.34^∗∗ µg/mg | 31.75±5.33^∗∗ µg/ml | 2.50±0.38^∗ | 3.00±0.49^∗∗ | 3.60±0.22^∗∗ | 14.33±2.10^∗∗∗ µg/mg | 29.47±4.91^∗∗∗ µg/ml | 2.02±0.57^∗∗ | 2.42±0.41^∗∗∗ | 3.03±0.37^∗∗∗ | significantly decrease | significantly decrease | 96 | 73.57±27.28 | 72.81±23.49 | content in the brain, ranking of the test substances [4]: lowest; content in the brain (tissue distribution) ([4]; 1.0 h): 0; content in the brain (tissue distribution) ([4]; 2.0 h): 1.6; content in the brain (tissue distribution) ([4]; 5.0 h): 1.3
5 | O=C(Nc1cccc(Cl)c1)C1CCN(C(=O)c2cc(O)ccc2F)CC1 [MAGLZ-II-11 (a)] | 12.65±3.36^∗∗∗ µg/mg | 24.05±6.17^∗∗∗ µg/ml | 1.23±0.50^∗∗ ∗ | 2.13±0.48^∗∗∗ | 2.87±0.46^∗∗∗ | 16.33±2.78^∗∗ µg/mg | 31.76±5.42^∗∗ µg/ml | 2.12±0.36^∗∗ ∗ | 3.02±0.53^∗ | 3.58±0.26^∗∗ | 14.79±2.73^∗∗∗ µg/mg | 29.89±5.34^∗∗∗ µg/ml | 1.51±0.43^∗∗ ∗ | 2.52±0.38^∗∗∗ | 3.27±0.48^∗∗∗ | significantly decrease | significantly decrease | 2150 | – | – | –
6 | O=C(Nc1cccc(Cl)c1)C1CCN(C(=O)c2cc3ccccc3[nH]2)CC1 [MAGLZ-II-18] | 14.33±2.10^∗∗∗ µg/mg | 30.86±5.28^∗∗∗ µg/ml | 1.87±0.36^∗∗ ∗ | 2.6±0.54^∗∗∗ | 3.09±0.34^∗∗∗ | 21.91 ± 2.46 µg/mg | 35.73 ± 3.32 µg/mL | 2.59±0.33 | 3.26±0.39 | 3.65±0.23^∗ | 14.89±3.19^∗∗ µg/mg | 29.12±7.05^∗∗ µg/ml | 2.29±0.36^∗∗ | 3.01±0.40^∗∗ | 3.3±0.45^∗∗ | significantly decrease | significantly decrease | 670 | 81.71±38.12 | 79.68±25.72 | –

From patent US20230090255A1, “MAGL INHIBITOR, PREPARATION METHOD THEREFOR AND USE THEREOF” (LUNAN PHARMACEUTICAL GROUP CORPORATION, priority 2019, published 2023)
